Experimental findings from PubChem BioAssay AID651971 (The Scripps Research Institute Molecular Screening Center, 2013) are described below.

Calls of active or inactive are those of the source. How the calls were made is not given here.

The target in this experiment is methionyl-tRNA synthetase (Trypanosoma brucei brucei) (UniProt Q38C91). In words: T. brucei MetRS inhibitors, dose response, biochemical, luminescence (AID 651971). The following applies: recombinant T. brucei MetRS, luminescence (ATP consumption).
methionyl-tRNA synthetase (Trypanosoma brucei brucei), sequence (Q38C91 1-773): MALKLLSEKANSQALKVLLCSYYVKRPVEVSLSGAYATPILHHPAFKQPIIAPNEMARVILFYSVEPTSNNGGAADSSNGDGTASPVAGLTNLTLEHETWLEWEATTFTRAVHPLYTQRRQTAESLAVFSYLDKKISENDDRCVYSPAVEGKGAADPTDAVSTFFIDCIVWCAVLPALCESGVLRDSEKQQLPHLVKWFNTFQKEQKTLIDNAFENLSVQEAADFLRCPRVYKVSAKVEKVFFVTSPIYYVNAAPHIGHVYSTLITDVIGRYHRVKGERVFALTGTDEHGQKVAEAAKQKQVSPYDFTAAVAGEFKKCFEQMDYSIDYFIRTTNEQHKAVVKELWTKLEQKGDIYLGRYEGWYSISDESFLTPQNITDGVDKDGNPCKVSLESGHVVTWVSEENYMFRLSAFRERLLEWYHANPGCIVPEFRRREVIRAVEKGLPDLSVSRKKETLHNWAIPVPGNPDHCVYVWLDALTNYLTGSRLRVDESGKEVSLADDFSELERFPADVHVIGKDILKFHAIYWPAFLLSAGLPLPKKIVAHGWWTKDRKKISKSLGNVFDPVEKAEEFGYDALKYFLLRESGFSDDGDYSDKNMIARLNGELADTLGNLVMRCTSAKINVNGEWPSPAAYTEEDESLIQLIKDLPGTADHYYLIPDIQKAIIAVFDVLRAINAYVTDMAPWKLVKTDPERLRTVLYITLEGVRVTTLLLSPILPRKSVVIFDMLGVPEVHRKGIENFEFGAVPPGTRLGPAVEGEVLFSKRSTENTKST

With `Cc1ccc(C(=O)Nn2c(O)c(C=C3N=c4ccccc4=N3)sc2=S)cc1`, the IC50 is > 119 µM (inactive).

As a reminder, the IC50 is the concentration that inhibits the measured activity by half.
